For three compounds, activity results are on record in PMC6812009, “Covalent Aurora A regulation by the metabolic integrator coenzyme A” (Redox Biology, 2019).

What all share (assay): Kinase profiling screen (radioactive filter-binding assay)
Format in all cases: biochemical

One experiment concerns the target ABL (Homo sapiens, UniProt P00519). To be noted: 100 μM compound, 5 μM ATP; read-out: Kinase activity, % of activity in the absence of inhibitor. An outline of the steps: (§1)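 Residual kinase activity is read in duplicate wells containing 100 μM final test compound (CoA, dpCoA or ADP). Recombinant kinases use model substrates at ATP levels optimal for each enzyme, across a 117-kinase screen.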

Another experiment concerns the target DAPK1 (Homo sapiens, UniProt P53355). The note with it: 100 μM compound, 5 μM ATP; read-out: Kinase activity, % of activity in the absence of inhibitor. The essentials: as §1
A further experiment addresses HER4 (Homo sapiens, UniProt Q15303). The note with it: 100 μM compound, 5 μM ATP; read-out: Kinase activity, % of activity in the absence of inhibitor. An outline of the steps: as §1
For a further experiment, the target named is HIPK1 (Homo sapiens, UniProt Q86Z02). To be noted: 100 μM compound, 20 μM ATP; read-out: Kinase activity, % of activity in the absence of inhibitor. An outline of the steps:
as §1

A further experiment has as its target T1, IKKβ (Homo sapiens, UniProt O14920).
T1 sequence (O14920 1-756): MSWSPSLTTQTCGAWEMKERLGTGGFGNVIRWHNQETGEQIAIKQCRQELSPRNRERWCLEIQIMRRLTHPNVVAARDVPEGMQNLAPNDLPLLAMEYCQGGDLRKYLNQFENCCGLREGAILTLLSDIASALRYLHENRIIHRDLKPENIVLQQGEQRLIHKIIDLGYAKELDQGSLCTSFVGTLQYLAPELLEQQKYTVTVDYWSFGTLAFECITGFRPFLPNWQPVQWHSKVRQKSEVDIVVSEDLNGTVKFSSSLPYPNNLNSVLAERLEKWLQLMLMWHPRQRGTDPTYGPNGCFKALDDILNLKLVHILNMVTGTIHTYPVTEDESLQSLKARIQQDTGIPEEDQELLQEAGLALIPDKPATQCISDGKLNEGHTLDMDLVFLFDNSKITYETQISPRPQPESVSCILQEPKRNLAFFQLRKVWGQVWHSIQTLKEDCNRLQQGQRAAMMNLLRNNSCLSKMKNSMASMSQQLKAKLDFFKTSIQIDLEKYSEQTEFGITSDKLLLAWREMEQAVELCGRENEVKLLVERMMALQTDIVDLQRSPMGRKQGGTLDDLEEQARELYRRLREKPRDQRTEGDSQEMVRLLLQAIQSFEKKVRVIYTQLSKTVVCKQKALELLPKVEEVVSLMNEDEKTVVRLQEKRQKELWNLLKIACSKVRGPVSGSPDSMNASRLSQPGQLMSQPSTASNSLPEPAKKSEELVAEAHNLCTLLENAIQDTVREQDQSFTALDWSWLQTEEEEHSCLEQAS
To be noted: 100 μM compound, 5 μM ATP; read-out: Kinase activity, % of activity in the absence of inhibitor. An outline of the steps:
as §1

A further experiment concerns the target T2, IRAK4 (Homo sapiens, UniProt Q9NWZ3).
T2 sequence (Q9NWZ3 1-460): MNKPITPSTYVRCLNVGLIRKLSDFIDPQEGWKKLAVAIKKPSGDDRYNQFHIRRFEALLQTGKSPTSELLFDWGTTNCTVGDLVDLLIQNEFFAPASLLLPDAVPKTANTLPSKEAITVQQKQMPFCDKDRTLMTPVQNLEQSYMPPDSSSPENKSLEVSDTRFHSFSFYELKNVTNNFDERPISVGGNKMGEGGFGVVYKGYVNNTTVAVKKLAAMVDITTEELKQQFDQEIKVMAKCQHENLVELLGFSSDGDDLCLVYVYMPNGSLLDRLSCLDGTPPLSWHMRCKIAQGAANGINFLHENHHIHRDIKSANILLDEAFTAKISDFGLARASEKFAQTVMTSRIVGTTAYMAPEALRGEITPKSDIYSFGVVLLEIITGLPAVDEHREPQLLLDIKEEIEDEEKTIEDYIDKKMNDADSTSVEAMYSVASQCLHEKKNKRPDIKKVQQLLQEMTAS
To be noted: 100 μM compound, 20 μM ATP; read-out: Kinase activity, % of activity in the absence of inhibitor. The essentials: as §1

The next experiment deals with Lck (Homo sapiens, UniProt P06239). To be noted: 100 μM compound, 50 μM ATP; read-out: Kinase activity, % of activity in the absence of inhibitor. An outline of the steps: as §1
Sequence of Lck (P06239 whole entry): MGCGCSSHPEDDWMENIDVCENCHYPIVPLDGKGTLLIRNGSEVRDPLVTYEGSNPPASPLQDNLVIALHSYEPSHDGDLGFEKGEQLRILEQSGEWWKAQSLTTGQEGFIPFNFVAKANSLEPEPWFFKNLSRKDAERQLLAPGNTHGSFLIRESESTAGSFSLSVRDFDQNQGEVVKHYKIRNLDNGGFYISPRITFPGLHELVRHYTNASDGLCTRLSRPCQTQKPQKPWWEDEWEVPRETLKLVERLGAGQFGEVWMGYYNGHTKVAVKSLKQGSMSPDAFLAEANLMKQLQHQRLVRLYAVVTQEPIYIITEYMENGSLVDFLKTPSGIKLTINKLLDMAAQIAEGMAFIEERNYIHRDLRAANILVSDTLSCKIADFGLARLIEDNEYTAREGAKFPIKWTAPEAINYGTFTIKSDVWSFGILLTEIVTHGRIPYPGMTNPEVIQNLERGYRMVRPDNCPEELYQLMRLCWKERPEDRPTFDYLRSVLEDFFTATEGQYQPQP
A further experiment concerns the target MEKK1 (Homo sapiens, UniProt Q13233). The note with it: 100 μM compound, 20 μM ATP; read-out: Kinase activity, % of activity in the absence of inhibitor. The essentials: as §1
Another experiment has as its target MINK1 (Homo sapiens, UniProt Q8N4C8). To be noted: 100 μM compound, 50 μM ATP; read-out: Kinase activity, % of activity in the absence of inhibitor. An outline of the steps:
as §1

The next experiment concerns the target PIM1 (Homo sapiens, UniProt P11309). The note with it: 100 μM compound, 20 μM ATP; read-out: Kinase activity, % of activity in the absence of inhibitor. The essentials: as §1
The next experiment has as its target PKCα (Homo sapiens, UniProt P17252). The note with it: 100 μM compound, read-out: Kinase activity, % of activity in the absence of inhibitor. The essentials:
as §1

Another experiment addresses T3, p38γ MAPK (Homo sapiens, UniProt P53778).
T3 sequence (P53778 1-367): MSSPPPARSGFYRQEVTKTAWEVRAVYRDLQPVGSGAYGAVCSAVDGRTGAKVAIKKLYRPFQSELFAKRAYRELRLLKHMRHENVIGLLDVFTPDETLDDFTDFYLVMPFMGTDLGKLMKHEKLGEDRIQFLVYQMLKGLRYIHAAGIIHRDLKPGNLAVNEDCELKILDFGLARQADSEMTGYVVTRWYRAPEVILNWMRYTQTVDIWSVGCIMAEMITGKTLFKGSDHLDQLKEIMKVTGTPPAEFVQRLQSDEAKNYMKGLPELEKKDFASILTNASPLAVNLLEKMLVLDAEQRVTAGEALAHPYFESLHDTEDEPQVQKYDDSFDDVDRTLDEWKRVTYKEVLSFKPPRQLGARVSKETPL
The note with it: 100 μM compound, 5 μM ATP; read-out: Kinase activity, % of activity in the absence of inhibitor. The essentials: as §1

Like-named read-outs stand apart in the source and are kept apart here.

Sequence of HER4 (Q15303 26-1308): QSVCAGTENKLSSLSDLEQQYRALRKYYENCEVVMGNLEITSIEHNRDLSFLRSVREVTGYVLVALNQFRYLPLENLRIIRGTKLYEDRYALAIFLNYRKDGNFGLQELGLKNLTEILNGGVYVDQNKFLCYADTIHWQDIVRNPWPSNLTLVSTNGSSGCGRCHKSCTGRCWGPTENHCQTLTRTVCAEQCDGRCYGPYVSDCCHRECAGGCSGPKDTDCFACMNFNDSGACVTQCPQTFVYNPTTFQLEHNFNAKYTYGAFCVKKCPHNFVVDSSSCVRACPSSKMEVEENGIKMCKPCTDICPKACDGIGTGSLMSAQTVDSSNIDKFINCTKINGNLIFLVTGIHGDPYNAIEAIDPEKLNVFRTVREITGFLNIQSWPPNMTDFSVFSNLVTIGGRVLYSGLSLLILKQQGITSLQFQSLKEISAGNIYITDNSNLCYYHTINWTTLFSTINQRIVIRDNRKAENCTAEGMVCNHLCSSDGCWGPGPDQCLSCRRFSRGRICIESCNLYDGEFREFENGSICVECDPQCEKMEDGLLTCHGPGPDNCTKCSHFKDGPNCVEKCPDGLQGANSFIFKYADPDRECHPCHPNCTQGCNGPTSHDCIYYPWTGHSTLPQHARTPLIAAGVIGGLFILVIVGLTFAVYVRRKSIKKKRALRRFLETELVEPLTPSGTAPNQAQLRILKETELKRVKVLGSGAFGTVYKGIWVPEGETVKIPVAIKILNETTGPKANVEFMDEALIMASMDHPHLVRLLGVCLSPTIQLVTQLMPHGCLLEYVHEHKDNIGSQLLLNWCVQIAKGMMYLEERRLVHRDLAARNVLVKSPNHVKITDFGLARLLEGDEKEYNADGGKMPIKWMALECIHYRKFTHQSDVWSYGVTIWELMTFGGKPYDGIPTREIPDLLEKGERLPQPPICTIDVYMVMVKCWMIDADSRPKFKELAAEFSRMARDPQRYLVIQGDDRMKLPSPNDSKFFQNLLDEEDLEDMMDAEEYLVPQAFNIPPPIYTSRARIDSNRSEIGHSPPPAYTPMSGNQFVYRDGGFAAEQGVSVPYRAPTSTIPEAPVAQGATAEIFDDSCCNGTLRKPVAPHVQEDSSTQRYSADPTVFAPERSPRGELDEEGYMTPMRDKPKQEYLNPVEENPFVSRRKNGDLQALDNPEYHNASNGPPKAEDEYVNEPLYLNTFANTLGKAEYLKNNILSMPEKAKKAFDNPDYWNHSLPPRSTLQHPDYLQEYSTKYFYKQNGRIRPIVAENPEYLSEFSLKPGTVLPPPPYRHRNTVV
Sequence of ABL (P00519 whole entry): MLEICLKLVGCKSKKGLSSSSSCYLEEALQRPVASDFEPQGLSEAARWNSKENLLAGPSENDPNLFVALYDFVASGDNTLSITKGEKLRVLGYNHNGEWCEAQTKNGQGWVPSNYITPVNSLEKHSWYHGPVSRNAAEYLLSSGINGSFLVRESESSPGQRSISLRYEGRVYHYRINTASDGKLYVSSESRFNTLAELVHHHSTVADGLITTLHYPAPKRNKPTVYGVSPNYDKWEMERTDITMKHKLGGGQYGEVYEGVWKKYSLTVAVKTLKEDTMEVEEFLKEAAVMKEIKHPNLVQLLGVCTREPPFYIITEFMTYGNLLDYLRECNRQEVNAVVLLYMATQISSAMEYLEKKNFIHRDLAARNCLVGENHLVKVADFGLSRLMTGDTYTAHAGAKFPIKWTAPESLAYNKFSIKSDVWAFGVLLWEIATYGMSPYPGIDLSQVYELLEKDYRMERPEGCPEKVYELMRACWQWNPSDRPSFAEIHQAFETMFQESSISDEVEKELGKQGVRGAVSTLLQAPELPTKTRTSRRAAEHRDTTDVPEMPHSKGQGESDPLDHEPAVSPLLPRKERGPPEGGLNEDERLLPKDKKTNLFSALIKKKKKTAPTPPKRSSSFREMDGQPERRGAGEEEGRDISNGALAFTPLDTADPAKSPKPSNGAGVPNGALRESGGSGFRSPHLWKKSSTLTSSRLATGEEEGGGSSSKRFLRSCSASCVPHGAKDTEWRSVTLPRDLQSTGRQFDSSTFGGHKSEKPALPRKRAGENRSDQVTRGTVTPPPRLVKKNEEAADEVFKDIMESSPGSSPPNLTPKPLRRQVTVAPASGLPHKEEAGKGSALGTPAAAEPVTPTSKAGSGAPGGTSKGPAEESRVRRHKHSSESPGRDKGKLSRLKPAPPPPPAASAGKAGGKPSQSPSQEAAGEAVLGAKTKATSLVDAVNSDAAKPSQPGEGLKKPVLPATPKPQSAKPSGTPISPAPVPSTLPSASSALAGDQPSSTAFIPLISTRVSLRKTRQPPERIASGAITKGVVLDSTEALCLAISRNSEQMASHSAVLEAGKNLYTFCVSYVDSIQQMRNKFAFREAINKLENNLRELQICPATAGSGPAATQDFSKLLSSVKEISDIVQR
Sequence of DAPK1 (P53355 whole entry): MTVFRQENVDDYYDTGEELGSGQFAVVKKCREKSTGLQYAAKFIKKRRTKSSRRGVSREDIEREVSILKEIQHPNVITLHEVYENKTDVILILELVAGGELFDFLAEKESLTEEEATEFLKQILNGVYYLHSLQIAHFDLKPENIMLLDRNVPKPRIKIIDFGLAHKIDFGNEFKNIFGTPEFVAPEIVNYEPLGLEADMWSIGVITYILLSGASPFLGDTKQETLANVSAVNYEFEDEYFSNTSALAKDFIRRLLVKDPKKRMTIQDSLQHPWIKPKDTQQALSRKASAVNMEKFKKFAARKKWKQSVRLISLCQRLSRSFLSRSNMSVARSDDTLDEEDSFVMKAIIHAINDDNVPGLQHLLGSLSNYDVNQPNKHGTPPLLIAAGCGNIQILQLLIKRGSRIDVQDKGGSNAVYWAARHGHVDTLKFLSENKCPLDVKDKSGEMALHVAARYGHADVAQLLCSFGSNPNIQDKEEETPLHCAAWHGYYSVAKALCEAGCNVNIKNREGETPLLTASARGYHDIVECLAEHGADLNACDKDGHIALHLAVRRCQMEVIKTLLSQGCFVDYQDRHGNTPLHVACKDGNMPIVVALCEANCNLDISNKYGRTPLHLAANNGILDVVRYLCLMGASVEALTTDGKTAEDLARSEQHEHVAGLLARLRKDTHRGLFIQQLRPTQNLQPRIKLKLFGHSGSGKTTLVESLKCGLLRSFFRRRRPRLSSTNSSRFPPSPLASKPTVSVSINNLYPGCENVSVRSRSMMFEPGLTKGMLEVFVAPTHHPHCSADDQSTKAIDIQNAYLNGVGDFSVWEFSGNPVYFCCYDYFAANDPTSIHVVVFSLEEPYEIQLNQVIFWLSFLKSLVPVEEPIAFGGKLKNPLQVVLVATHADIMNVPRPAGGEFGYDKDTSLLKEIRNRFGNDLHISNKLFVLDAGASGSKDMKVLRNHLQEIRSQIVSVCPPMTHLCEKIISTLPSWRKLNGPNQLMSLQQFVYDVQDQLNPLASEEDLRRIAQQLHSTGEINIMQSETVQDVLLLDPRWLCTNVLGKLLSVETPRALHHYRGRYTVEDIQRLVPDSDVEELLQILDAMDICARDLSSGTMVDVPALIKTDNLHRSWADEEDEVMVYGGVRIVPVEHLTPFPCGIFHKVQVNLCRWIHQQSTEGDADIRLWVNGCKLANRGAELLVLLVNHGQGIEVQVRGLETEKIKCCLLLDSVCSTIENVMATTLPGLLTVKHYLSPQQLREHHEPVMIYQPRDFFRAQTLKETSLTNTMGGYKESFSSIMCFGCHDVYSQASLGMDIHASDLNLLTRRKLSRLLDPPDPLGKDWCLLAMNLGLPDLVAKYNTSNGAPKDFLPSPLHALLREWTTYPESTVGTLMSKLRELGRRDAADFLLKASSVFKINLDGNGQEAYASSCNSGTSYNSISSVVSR
Sequence of PIM1 (P11309 whole entry): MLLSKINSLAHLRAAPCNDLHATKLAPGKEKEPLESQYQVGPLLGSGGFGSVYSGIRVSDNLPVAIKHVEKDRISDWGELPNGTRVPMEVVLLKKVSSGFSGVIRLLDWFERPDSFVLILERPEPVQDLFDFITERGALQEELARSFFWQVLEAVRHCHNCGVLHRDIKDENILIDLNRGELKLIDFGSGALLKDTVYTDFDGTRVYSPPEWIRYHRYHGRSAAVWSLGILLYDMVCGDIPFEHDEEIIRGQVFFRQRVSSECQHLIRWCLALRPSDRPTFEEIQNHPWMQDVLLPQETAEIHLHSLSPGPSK

As to `CC(C)(COP(=O)(O)OP(=O)(O)OCC1OC(n2cnc3c(N)ncnc32)C(O)C1O)C(O)C(=O)NCCC(=O)NCCS` (stereo not drawn) [dpCoA, dephospho-CoA], the activity at 100 µM on ABL worked out at 98%; at DAPK1 it was 64.4%; at HER4, 75.7%; at HIPK1 it was 92.8%; on IKKβ, 48%; on IRAK4 it was 74.8%. Besides, the activity at 100 µM is 69% on Lck; 106% on MEKK1; 104% on MINK1; 97.7% at PIM1; 76.8% on PKCα (5 μM ATP); 88.9% on PKCα (20 μM ATP). Also, the activity at 100 µM at p38γ MAPK came out at 65.9%.

Turning to `CC(C)(COP(=O)(O)OP(=O)(O)OC[C@H]1O[C@@H](n2cnc3c(N)ncnc32)[C@H](O)[C@@H]1OP(=O)(O)O)[C@@H](O)C(=O)NCCC(=O)NCCS` [CoA, Coenzyme A], the activity at 100 µM amounted to 111% on ABL; 106% on DAPK1; 100% at HER4; 115% on HIPK1; 90.5% on IKKβ; 89.1% at IRAK4. Moreover, the activity at 100 µM stood at 100% on Lck; 96.3% on MEKK1; 106% at MINK1; 103% on PIM1; 104% on PKCα (5 μM ATP); 78.1% on PKCα (20 μM ATP). The activity at 100 µM on p38γ MAPK came to 127%.

Turning to `Nc1ncnc2c1ncn2C1OC(COP(=O)(O)OP(=O)(O)O)C(O)C1O` (stereo not drawn) [ADP], the activity at 100 µM on ABL was 22.9%; at DAPK1, 10.3%; on HER4 it was 29.1%; at HIPK1, 31.7%; at IKKβ, 26.6%; on IRAK4 it was 82.1%. In addition, the activity at 100 µM at Lck turned out to be 35.1%; at MEKK1 it was 68.1%; on MINK1 it was 49.4%; on PIM1 it was 46.1%; at PKCα (5 μM ATP), 38.6%; on PKCα (20 μM ATP), 76.5%. For the same compound, the activity at 100 µM on p38γ MAPK is 26%.
